# Measurements reported in US20250101039A1, “RIFAMYCIN DERIVATIVES FOR THE TREATMENT OF DISEASES” (priority 2022, published 2025).
# Values joined by “and” are separate entries in the source; they are usually repeats but may differ in a detail not shown here. Identical values can stand only once. Like-named read-outs stand apart in the source and are kept apart here.
# What was measured:
# S. aureus = experiment: MIC by broth microdilution, S. aureus; assay type: cell-based, Staphylococcus aureus; conditions: cation adjusted Mueller Hinton broth, 35° C. 20 hours
# A. baumannii = experiment: MIC by broth microdilution, A. baumannii (WT); assay type: cell-based, Acinetobacter baumannii; conditions: for MIC A. baumannii: RPMI medium supplemented with 10% FCS, 35° C. 20 hours; for A. baumannii MIC, WT: Table 4, RPMI + FCS
# [1] = test system: Enterococcus faecium (strain NCTC 12204); experiment: MIC by broth microdilution, E. faecium; assay type: cell-based; conditions: strain NCTC 12204, cation adjusted Mueller Hinton broth
# [2] = test system: Enterococcus faecalis (strain ATCC 51575); experiment: MIC by broth microdilution, E. faecalis; assay type: cell-based; conditions: strain ATCC 51575, cation adjusted Mueller Hinton broth
# [3] = test system: Staphylococcus epidermidis (strain ATCC 12228); experiment: MIC by broth microdilution, S. epidermidis; assay type: cell-based; conditions: strain ATCC 12228, cation adjusted Mueller Hinton broth
# [4] = test system: S. pneumoniae (strain ATCC 49619); experiment: MIC by broth microdilution, S. pneumoniae; assay type: cell-based, Streptococcus pneumoniae; conditions: strain ATCC 49619, cation adjusted Mueller Hinton broth + 5% laked horse blood
# [5] = test system: S. pyogenes (strain IHMA 1117021); experiment: MIC by broth microdilution, S. pyogenes; assay type: cell-based, Streptococcus pyogenes; conditions: strain IHMA 1117021, cation adjusted Mueller Hinton broth + 5% laked horse blood
# [6] = test system: H. influenzae (strain ATCC 49247); experiment: MIC by broth microdilution, H. influenzae; assay type: cell-based, Hemophilus influenzae; conditions: strain ATCC 49247, Hemophilus test medium broth
# [7] = test system: M. abscessus (strain ATCC 19977); experiment: MIC by broth microdilution, M. abscessus; assay type: cell-based, Mycobacterium abscessus; conditions: strain ATCC 19977, Middlebrook 7H9 broth + ADC
# [8] = test system: M. tuberculosis (H37Rv strain ATCC 27294); assay type: cell-based, Mycobacterium tuberculosis
# [9] = test system: M. smegmatis (strain ATCC 700084); experiment: MIC, M. smegmatis (BacTiter-Glo); assay type: cell-based, Mycobacterium smegmatis; conditions: strain ATCC 700084, Middlebrook 7H9 + ADC, 90% growth inhibition, 20 hours
# A. baumannii RpoB H535Q = experiment: microbe, parasite or virus in culture; assay type: cell-based, Acinetobacter baumannii; conditions: for MIC: Acinetobacter baumannii, RPOBH535Q
# A. baumannii RpoB H535C = experiment: microbe, parasite or virus in culture; assay type: cell-based, Acinetobacter baumannii; conditions: for MIC: Acinetobacter baumannii, RPOBH535C
# A. baumannii RpoB H535L = experiment: microbe, parasite or virus in culture; assay type: cell-based, Acinetobacter baumannii; conditions: for MIC: Acinetobacter baumannii, RPOBH535L
# A. baumannii RpoB I581M = experiment: microbe, parasite or virus in culture; assay type: cell-based, Acinetobacter baumannii
# [10] = test system: A. baumannii RpoB H535Q/S521T; experiment: microbe, parasite or virus in culture; assay type: cell-based, Acinetobacter baumannii
# A. baumannii RpoB L542F = experiment: microbe, parasite or virus in culture; assay type: cell-based, Acinetobacter baumannii; conditions: for MIC: Acinetobacter baumannii, RPOBL542F
# A. baumannii RpoB S583L = experiment: microbe, parasite or virus in culture; assay type: cell-based, Acinetobacter baumannii
# A. baumannii RpoB N527D = experiment: microbe, parasite or virus in culture; assay type: cell-based, Acinetobacter baumannii
smiles,measurement,setting,value
"CO[C@H]1/C=C/O[C@@]2(C)Oc3c(C)c(O)c4c(c3C2=O)C2=NC3(CC5CCC(C3)N5)NC2=C(NC(=O)/C(C)=C\C=C\[C@H](C)[C@H](O)[C@@H](C)[C@@H](O)[C@@H](C)[C@H](OC(C)=O)[C@@H]1C)C4=O (single isomer, unassigned) [Compound 12B]",MIC S. aureus,S. aureus,0.016 µg/mL
same,MIC A. baumannii,A. baumannii,< 2 ng/mL
same,"A. baumannii MIC, WT",A. baumannii,≤2 ng/mL
same,MIC E. faecium,[1],0.03 µg/mL
same,MIC E. faecalis,[2],0.125 µg/mL
same,MIC S. epidermidis,[3],< 2 ng/mL
same,MIC S. pneumoniae,[4],< 2 ng/mL
same,MIC S. pyogenes,[5],< 2 ng/mL
same,MIC H. influenzae,[6],0.06 µg/mL
same,MIC M. abscessus,[7],8 µg/mL
same,MIC M. tuberculosis,[8],0.01 µg/mL
same,MIC M. smegmatis,[9],0.32 µg/mL
same,"A. baumannii MIC, RpoB H535Q","A. baumannii RpoB H535Q; Table 4, RPMI + FCS",≤2 ng/mL
same,"A. baumannii MIC, RpoB H535C","A. baumannii RpoB H535C; Table 4, RPMI + FCS",≤2 ng/mL
same,"A. baumannii MIC, RpoB H535L","A. baumannii RpoB H535L; Table 4, RPMI + FCS",0.03 mg/L
same,"MIC, RpoB mutation I581M","A. baumannii RpoB I581M; Table 5 part 1 c1, clinical isolate, RPMI + 10% FCS",4 ng/mL
same,"MIC, RpoB mutation H535Q/S521T",[10],0.5 mg/L and 1 mg/L
same,"MIC, RpoB mutation L542F",A. baumannii RpoB L542F,2 ng/mL
same,"MIC, RpoB mutation S583L","A. baumannii RpoB S583L; Table 5 part 3 c4, clinical isolate, RPMI + 10% FCS",4 ng/mL
same,"MIC, RpoB mutation N527D","A. baumannii RpoB N527D; Table 5 part 3 c5, clinical isolate, RPMI + 10% FCS",≤2 ng/mL
CO[C@H]1/C=C/O[C@@]2(C)Oc3c(C)c(O)c4c(c3C2=O)C2=NC3(NC2=C(NC(=O)/C(C)=C\C=C\[C@H](C)[C@H](O)[C@@H](C)[C@@H](O)[C@@H](C)[C@H](OC(C)=O)[C@@H]1C)C4=O)C1CC2CC3CN(C2)C1 (some centres unmarked) [Compound 3B],MIC A. baumannii,A. baumannii,< 2 ng/mL
same,"A. baumannii MIC, WT",A. baumannii,≤2 ng/mL
same,MIC E. faecium,[1],0.03 µg/mL
same,MIC E. faecalis,[2],0.5 µg/mL
same,MIC S. epidermidis,[3],< 2 ng/mL
same,MIC S. pneumoniae,[4],< 2 ng/mL
same,MIC S. pyogenes,[5],< 2 ng/mL
same,MIC H. influenzae,[6],0.125 µg/mL
same,MIC M. abscessus,[7],8 µg/mL
same,MIC M. tuberculosis,[8],0.01 µg/mL
same,MIC M. smegmatis,[9],0.65 µg/mL
same,"A. baumannii MIC, RpoB H535Q",A. baumannii RpoB H535Q,≤2 ng/mL
same,"A. baumannii MIC, RpoB H535C",A. baumannii RpoB H535C,≤2 ng/mL
same,"A. baumannii MIC, RpoB H535L",A. baumannii RpoB H535L,0.016 mg/L
same,"MIC, RpoB mutation I581M",A. baumannii RpoB I581M,≤2 ng/mL
same,"MIC, RpoB mutation H535Q/S521T",[10],1 mg/L and 0.5 mg/L
same,"MIC, RpoB mutation S583L",A. baumannii RpoB S583L,≤2 ng/mL
same,"MIC, RpoB mutation N527D",A. baumannii RpoB N527D,≤2 ng/mL
"CO[C@H]1/C=C/O[C@@]2(C)Oc3c(C)c(O)c4c(O)c(c(/C=N/N5CCN(C)CC5)c(O)c4c3C2=O)NC(=O)/C(C)=C\C=C\[C@H](C)[C@H](O)[C@@H](C)[C@@H](O)[C@@H](C)[C@H](OC(C)=O)[C@@H]1C [Rifampicin, reference compound]",MIC,"A. baumannii; Acinetobacter baumannii, Table 4, cation-adjusted Mueller Hinton broth (rifampicin), read-out: A. baumannii MIC, WT",8 µg/mL
same,MIC,"[1]; Enterococcus faecium, NCTC12204, read-out: MIC E. faecium",500 µg/mL
same,MIC,"[2]; Enterococcus faecalis, ATCC51575, read-out: MIC E. faecalis",1000 µg/mL
same,MIC,"[3]; Staphylococcus epidermidis, ATCC12228, read-out: MIC S. epidermidis",≤ 2 µg/mL
same,MIC,"[6]; Haemophilus influenzae, ATCC49247, read-out: MIC H. influenzae",250 µg/mL
same,MIC,"A. baumannii RpoB H535Q; read-out: A. baumannii MIC, RpoB H535Q, Table 4, cation-adjusted Mueller Hinton broth (rifampicin)",> 32 µg/mL
same,MIC,"A. baumannii RpoB H535Q; read-out: MIC, RpoB mutation H535Q, Table 5 part 1 c2, 1st H535Q isolate, cation-adjusted Mueller Hinton broth (rifampicin)",> 32 µg/mL
same,MIC,"A. baumannii RpoB H535Q; read-out: MIC, RpoB mutation H535Q, Table 5 part 1 c3, 2nd H535Q isolate, cation-adjusted Mueller Hinton broth (rifampicin)",> 32 µg/mL
same,MIC,"A. baumannii RpoB H535Q; read-out: MIC, RpoB mutation H535Q, Table 5 part 1 c4, 3rd H535Q isolate, cation-adjusted Mueller Hinton broth (rifampicin)",> 32 µg/mL
same,MIC,"A. baumannii RpoB H535C; read-out: A. baumannii MIC, RpoB H535C, Table 4, cation-adjusted Mueller Hinton broth (rifampicin)",> 32 µg/mL
same,MIC,"A. baumannii RpoB H535C; read-out: MIC, RpoB mutation H535C, Table 5 part 2 c2, 2nd H535C isolate, cation-adjusted Mueller Hinton broth (rifampicin)",> 32 µg/mL
same,MIC,"A. baumannii RpoB H535C; read-out: MIC, RpoB mutation H535C, Table 5 part 2 c3, 3rd H535C isolate, cation-adjusted Mueller Hinton broth (rifampicin)",> 32 µg/mL
same,MIC,"A. baumannii RpoB H535C; read-out: MIC, RpoB mutation H535C, Table 5 part 2 c4, 4th H535C isolate, cation-adjusted Mueller Hinton broth (rifampicin)",> 32 µg/mL
same,MIC,"A. baumannii RpoB H535L; read-out: A. baumannii MIC, RpoB H535L, Table 4, cation-adjusted Mueller Hinton broth (rifampicin)",> 32 µg/mL
same,MIC,"A. baumannii RpoB H535L; read-out: MIC, RpoB mutation H535L, Table 5 part 2 c5, 1st H535L isolate, cation-adjusted Mueller Hinton broth (rifampicin)",> 32 µg/mL
same,MIC,"A. baumannii RpoB H535L; read-out: MIC, RpoB mutation H535L, Table 5 part 2 c6, 2nd H535L isolate, cation-adjusted Mueller Hinton broth (rifampicin)",> 32 µg/mL
same,MIC,"A. baumannii RpoB H535L; read-out: MIC, RpoB mutation H535L, Table 5 part 3 c1, 3rd H535L isolate, cation-adjusted Mueller Hinton broth (rifampicin)",> 32 µg/mL
same,MIC,"A. baumannii RpoB H535L; read-out: MIC, RpoB mutation H535L, Table 5 part 3 c6, 4th H535L isolate, cation-adjusted Mueller Hinton broth (rifampicin)",> 32 µg/mL
same,MIC,"A. baumannii RpoB H535L; read-out: MIC, RpoB mutation H535L, Table 5 part 3 c7, 5th H535L isolate, cation-adjusted Mueller Hinton broth (rifampicin)",> 32 µg/mL
same,MIC,"A. baumannii RpoB I581M; Acinetobacter baumannii, RPOBI581M, read-out: MIC, RpoB mutation I581M",> 32 µg/mL
same,MIC,"A. baumannii RpoB L542F; read-out: MIC, RpoB mutation L542F, Table 5 part 3 c2, 1st L542F isolate, cation-adjusted Mueller Hinton broth (rifampicin)",8 µg/mL
same,MIC,"A. baumannii RpoB L542F; read-out: MIC, RpoB mutation L542F, Table 5 part 3 c3, 2nd L542F isolate, cation-adjusted Mueller Hinton broth (rifampicin)",8 µg/mL
same,MIC,"A. baumannii RpoB S583L; Acinetobacter baumannii, RPOBS583L, read-out: MIC, RpoB mutation S583L",> 32 µg/mL
same,MIC,"A. baumannii RpoB N527D; Acinetobacter baumannii, RPOBN527D, read-out: MIC, RpoB mutation N527D",> 32 µg/mL
